According to BindingDB's records for patent US10723705 (Incyte, 2020):

Target: T1, Histone deacetylase 8 (Homo sapiens, UniProt Q9BY41)
T1 sequence (Q9BY41 whole entry): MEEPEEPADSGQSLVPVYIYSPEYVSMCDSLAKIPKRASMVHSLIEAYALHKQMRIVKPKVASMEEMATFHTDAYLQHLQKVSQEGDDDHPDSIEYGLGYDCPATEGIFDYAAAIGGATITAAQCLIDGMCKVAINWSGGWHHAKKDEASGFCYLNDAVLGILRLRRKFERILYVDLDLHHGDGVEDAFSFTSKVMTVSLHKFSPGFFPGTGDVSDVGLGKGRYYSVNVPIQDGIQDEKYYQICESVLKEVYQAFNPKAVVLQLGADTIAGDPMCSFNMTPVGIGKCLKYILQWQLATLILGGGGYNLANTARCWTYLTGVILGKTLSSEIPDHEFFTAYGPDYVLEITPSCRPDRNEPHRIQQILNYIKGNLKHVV
Assay: Enzymatic Assay
Description: HDAC-Glo I/II Assay Kit was purchased from Promega Corporation (Madison, Wis.), including the following components: HDAC-Glo I/II Buffer (25 mM Tris buffer, pH 8.0, supplemented with 137 mM: NaCl, 2.7 mM KCl, 1% v/v Triton X-100 and 1 mM: MgCl2), luminogenic substrates Boc-GAK(Ac)-aminoluciferin (HDAC-Glo I/II substrate), proprietary developer reagent (containing trypsin). Assay:The HDAC8 reaction was performed at room temperature in white 384-well polystyrene, flat-bottom microtiter plate (Greiner Bio-one, Monroe, N.C.) in a final volume of 20 μL. Test compounds were first diluted serially in DMSO and 100 nL were transferred to the plate wells by Echo 550 (Labcyte, Sunnyvale, Calif.) before the addition of other reaction components. The final concentration of DMSO in the assay was 0.5%. The HDAC-Glo I/II assay reagent was prepared by rehydration of lyophilized HDAC-Glo I/II substrate in 10 mL. HDAC-Glo I/II assay buffer followed with the addition of 10 μL of developer reagent. 10 uL of 3 nM HDAC8 in the HDAC-Glo I/II assay buffer were first dispensed into the microliter plate containing the compounds and incubated at room temperature for 30 min. The reactions were initiated with the addition of 10 uL HDAC-Glo I/II assay reagent with Multidrop.

IC50 | Compound
in the range around 0.375 µM | O=C(NO)C(Cc1ccccc1)N1C=CC2C(Cl)=NC=CC21 (stereo not drawn) [US10723705, No. I-0196]
in the range around 0.375 µM | O=C(NO)C(Cc1ccccc1)N1N=CC2C(Cl)=NC=CC21 (stereo not drawn) [US10723705, No. I-0055]
in the range around 0.375 µM | O=C(NO)C(Cc1ccccc1)N1C=CC2C=C(Cl)C=NC21 (stereo not drawn) [US10723705, No. I-0195]
